# Measured values: patent US5116749A, “γ-glutamylcysteine transferase” (Consortium fur Elektrochemische Industrie GmbH, priority 1988, dated 1992)
# How the values were obtained:
# [1] = tested on: γ-glutamylcysteine transferase
# [2] = tested on: γ-glutamylcysteine transferase; test: KM of γ-glutamylcysteine transferase for its substrates; assay type: biochemical, Silene cucubalus; conditions: 30° C. and pH=7.8
SMILES,reversibility of the inhibition ([1]; after removal of EDTA and addition of heavy metal ions),inhibition in the presence of EDTA ([1]; in the presence of ethylenediaminetetraacetic acid),Km [2]
"O=C(O)CN(CCN(CC(=O)O)CC(=O)O)CC(=O)O [ethylenediaminetetraacetic acid (EDTA), ethylenediaminetetraacetic acid]",reversible,complete inhibition,
Cc1c(C)n2c(CSC[C@H](NC(=O)CC[C@H](N)C(=O)O)C(=O)NCC(=O)O)c(C)c(=O)n2c1=O [glutathione S-biman],,,1 mM
N[C@@H](CCC(=O)N[C@@H](CS)C(=O)NCC(=O)O)C(=O)O [glutathione],,,6.8 mM
